Test results: publication PMC8304783, “Antiadhesive Properties of Imidazolium Ionic Liquids Based on (−)-Menthol Against Candida spp” (International Journal of Molecular Sciences, 2021)

Key:
Format in all cases: cell-based
C. albicans isolates = assay: Detachment of adherent clinical isolates from polystyrene (isolates taken together); conditions: in most cases, 1, 2 and 4 times MIC90
Protocol: (§1) Post-adherence treatment with ILs was performed in a similar manner to that described previously by our team. Candida spp. suspensions were prepared by centrifuging YPD-grown cultures and resuspending fungal mass in PBS to an OD600 = 0.6. Sterile 96-well plates were inoculated with the prepared suspensions and incubated for 2 h at 37 °C to induce fungal adhesion. Afterwards, adherent cells were washed with PBS to remove planktonic cells and treated with ILs (concentrations equivalent to 1, 2 or 4 × MIC90 for each fungi) for 2 h at 37 °C. Then, each well was washed with PBS and adherent cells were fixed with 0.1% CV solution for 5 min, and washed with PBS. Cells were then treated with a solution of isopropanol 0.04 N HCL with 0.1% SDS to permeabilize adherent cells and release the CV dye. The absorbance of CV was measured at 590 nm (ASYS UVM 340 Biogenet). The percentage of cells that were removed was determined in comparison to adherent cells treated with PBS only (designated 100% adhesion).
(§2) The effect of imidazolium ILs based on of (1R,2S,5R)‐(−)‐menthol was evaluated on clinical, fluconazole(FLC)‐resistant and FLC‐sensitive C. albicans isolates. C. albicans Gu4 and Gu5 strains were isolated from a patient before and after fluconazole administration, respectively.
(§3) Azole‐resistance of Gu5 origins in overexpression of CDR1 and CD R2. C. albicans B3 and B4 strains […]

C. glabrata = assay: Detachment of adherent cells from polystyrene (crystal violet); conditions: C. glabrata on polystyrene, 2 h treatment
Protocol: Thus, for the evaluation of ILs on fungal adhesion, higher concentrations were used, corresponding to 1, 2 and 4 times the MIC90 values (Figure 1).
Figure 1 Detachment of adherent Candida spp. cells after 2 h incubation on polystyrene surfaces by ionic liquids (ILs) (A) or amphotericin B (AMB) (B) (means ± SD; n = 3). Results are presented as percentage of adherent cells relative to untreated controls (100% adhesion). Statistical analysis of detachment at each concentration was performed towards corresponding control experiments (fungi untreated by ILs or AMB = 100% adhesion) (*, p < 0.05 and **, p < 0.01).
as §1

C. albicans B3 = assay: Detachment of adherent clinical isolates from polystyrene; conditions: isolate B3 on polystyrene; highest concentration (4 x MIC)
Protocol: as §1, §2, §3
(§4) Azole‐resistance of B4 results from overexpression of MDR1. The strains were generous gifts from Prof. S. Milewski (Gdańsk, Poland) and Prof. J. Morschhäuser (Wurzburg, Germany). They are originally referenced in: Franz, R., Ruhnke, M. & Morschhäuser, J. Molecular aspects of fluconazole resistance development in Candida albicans. Mycoses 42, 453–458, (1999).
(§5) Table S1 summarizes the minimal inhibitory and fungicidal concentration (MIC90 and MFC, respectively) values of ILs tested against the C. albicans isolates (for ILs structures see section 5.2. in the mai n text). No difference in case of MIC90 values between the strains was observed. […]

C. albicans Gu4 = assay: as above; conditions: isolate Gu4 on polystyrene; regardless of the concentration (1, 2, 4 x MIC)
Protocol: as §1, §2, §3, §4, §5

C. albicans B4 = assay: as above; conditions: isolate B4 on polystyrene; highest concentration (4 x MIC)
Protocol: as §1, §2, §3, §4, §5

[1] = highest concentration (4 × MIC)

| Structure (SMILES) | Influence on adherent properties of C. albicans isolates (C. albicans isolates) | Reduction of adhesion (C. glabrata; [1]) | Reduction of adhesion (C. glabrata; 2 × MIC and 4 × MIC) | Reduction of adhesion (C. albicans B3) | Reduction of adhesion (C. albicans Gu4) | Reduction of adhesion (C. albicans B4) |
| --- | --- | --- | --- | --- | --- | --- |
| CCCCCCCCCn1cc[n+](CO[C@@H]2C[C@H](C)CC[C@H]2C(C)C)c1 [1a, 1-[(1R,2S,5R)-(−)-menthoxymethyl]-3-nonylimidazolium chloride] | did not influence | ~ 40% |  |  |  |  |
| CCCCCCCCCCn1cc[n+](CO[C@@H]2C[C@H](C)CC[C@H]2C(C)C)c1 [1b, 3-decyl-1-[(1R,2S,5R)-(−)-menthoxymethyl]imidazolium chloride] |  |  | ~ 20% | ~ 10% | ~ 20% | ~ 10% |
| CCCCCCCCCOCn1cc[n+](CO[C@@H]2C[C@H](C)CC[C@H]2C(C)C)c1 [2a, 1-(1R,2S,5R)-(−)-menthoxymethyl-3-nonyloxymethylimidazolium chloride] |  | approximately 45% |  |  |  |  |
